Assay [1] relates to reserpine-induced hypothermia / blood pressure. Description: Quotient ED 50% antidepressive action / ED 20% hypertensive action.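 As to Q Increase: larger quotient means more selective hypertensive action.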 The assay is classed as in vivo, mouse / rat. To be noted: for Q Increase: Table 2, route of hypertensive test not given. An excerpt: This is evident from the fact that the quotient defined above differs wtih respect to the comparative compounds. […] This arises, inter alia, from the fact that the hypertensive ED 20 constitutes the denominator of the quotient. It is possible that the unforeseeable selective direction of action is attributable to the special substitution,in accordance with the invention, at the 4-imino group.

Assay [2] concerns reserpine-induced hypothermia. Description: Antidepressive action: reserpine antagonism, inhibition of reserpine-induced hypothermia of the mouse. Conditions: for ED50: Mus musculus, dose based on the base, read-out: ED 50% (dose which inhibits the reserpine-induced hypothermia of the mouse by 50%); for R.A. (relative activity), reserpine antagonism: amezinium = 1.00, oral. The format is in vivo, male Swiss mice. The method, then: Antidepressants effect dose-dependent inhibition of this hypotherma. The test substances are administered orally 60 minutes before the administration of reserpine.
The dose which effects 50% inhibition of the reserpine-induced hypothermia is determined, as the ED 50%, from the linear regression between log dose (mg/kg) and relative reduction in hypothermia (Δ%).

In assay [3] the test system is blood pressure. The assay can be described thus: Effect on the blood pressure: hypertensive action, pithed rat. The assay is classed as in vivo, male Sprague-Dawley rats. Conditions: for ED20: Rattus norvegicus, dose based on the base, read-out: ED 20% hypertensive action (dose which increases the blood pressure of the pithed rat by 20%); for R.A. (relative activity), hypertensive action: amezinium = 1.00. The procedure: The measurement of the blood pressure in the carotid artery was carried out by means of Statham transducers. The substance was administered in the jugular vein (as an aqueous solution, 1 ml/kg) or intraperitoneally (as a tragacanth suspension, 2 ml/kg). The ED 20% is determined as the dose which increases the blood pressure by 20%.

[4] abbreviates: Table 1, oral administration 60 min before reserpine.
The mark [5] stands for this setting: ip, Table 1, i.p. administration.
Setting [6] is: iv, Table 1, i.v. administration.

Counter-ions that a name gives are not always drawn. Like-named read-outs stand apart in the source and are kept apart here.

Turning to `O=C(N=c1ccn(-c2ccccc2)nc1)c1ccccc1Cl` [Example 17], the “Q Increase” value in assay [1] was 60.00. In assay [2] (Table 2, oral administration), the ED50 was found to be 2.76 mg/kg. In addition, the “R.A. (relative activity), reserpine antagonism” value in assay [2] (Table 2) is 0.27. For the same molecule, the ED20 in assay [3] (Table 2, route not given) turned out to be 0.046 mg/kg. For the same molecule, the “R.A. (relative activity), hypertensive action” value in assay [3] (Table 2) came out at 1.09.
For the molecule `O=C(N=c1ccn(-c2ccccc2)nc1)c1ccc(Cl)cc1` [Example 19], in assay [1] (hypertensive test i.p.), the “Q (quotient ED 50% antidepressive action/ED 20% hypertensive action)” value was below 0.14. For the same molecule, the ED50 in assay [2] (setting [4]) worked out at 1.35 mg/kg. Moreover, in assay [2] (Table 1), the “R.A. (relative activity), reserpine antagonism” value was determined as 0.54. Also, the ED20 in assay [3] (setting [5]) is above 10 mg/kg. Besides, in assay [3] (Table 1, i.p. administration), the “R.A. (relative activity), hypertensive action” value is given as below 0.04.
Taken in the same sequence, the figures for `O=C(N=c1ccn(-c2ccccc2)nc1)c1ccc(Cl)cc1Cl` [Example 20] were below 0.11, 1.1 mg/kg, 0.67, above 10 mg/kg and below 0.04.
The like results for `O=C(N=c1ccn(-c2ccccc2)nc1)c1ccc(Cl)c(Cl)c1` [Example 22] were, in that order, 0.67, 3.1 mg/kg, 0.24, 4.64 mg/kg and 0.08.
Taken in the same sequence, the figures for `Cc1cccc(C(=O)N=c2ccn(-c3ccccc3)nc2)c1` [Example 23] were 0.98, 0.98 mg/kg, 0.74, 1 mg/kg and 0.37.
`O=C(N=c1ccn(-c2ccccc2)nc1)c1cccc(C(F)(F)F)c1` [Example 26]: in assay [1] (hypertensive test i.p.), the “Q (quotient ED 50% antidepressive action/ED 20% hypertensive action)” value is on record as 0.70. The ED50 in assay [2] (setting [4]) was 3.26 mg/kg. In addition, the “R.A. (relative activity), reserpine antagonism” value in assay [2] (Table 1) came to 0.22. The ED20 in assay [3] (setting [5]) is 4.64 mg/kg. Also, the “R.A. (relative activity), hypertensive action” value in assay [3] (Table 1, i.p. administration) amounted to 0.08.
`CC1(C(=O)N=c2ccn(-c3ccccc3)nc2)CCCCC1` [Example 28]: in assay [1] (hypertensive test i.v.), the “Q (quotient ED 50% antidepressive action/ED 20% hypertensive action)” value was determined as 5.80. Also, the ED50 in assay [2] (setting [4]) worked out at 0.58 mg/kg. For the same molecule, in assay [2] (Table 1), the “R.A. (relative activity), reserpine antagonism” value is recorded as 1.26. Moreover, the ED20 in assay [3] (setting [6]) came out at 0.1 mg/kg. Further, the “R.A. (relative activity), hypertensive action” value in assay [3] (Table 1, i.v. administration) came out at 0.50.
The like results for `CCOC(=O)N=c1ccn(-c2ccccc2)nc1` [Example 29, 1,4-dihydro-4-(ethoxycarbonyl)-imino-1-phenylpyridazine hydrochloride] were, in that order, 4.00, 0.86 mg/kg, 0.85, 0.215 mg/kg and 0.23.
Regarding `O=C(N=c1ccn(-c2ccccc2)nc1)Oc1ccccc1` [Example 30, 1,4-dihydro-4-(phenoxycarbonyl)-imino-1-phenylpyridazine hydrochloride], the “Q Increase” value in assay [1] is on record as 120.59. Moreover, the “factor by which the hypertensive dose (ED 20%) is smaller than the antidepressive effective dose (ED 50%)” value in assay [1] (compounds of Table 2) was found to be 120. Besides, the ED50 in assay [2] (Table 2, oral administration) came to 4.1 mg/kg. Besides, in assay [2] (Table 2), the “R.A. (relative activity), reserpine antagonism” value was 0.18. Besides, in assay [3] (Table 2, route not given), the ED20 was 0.034 mg/kg. Also, the “R.A. (relative activity), hypertensive action” value in assay [3] (Table 2) was found to be 1.47.
As to `CNC(=O)N=c1ccn(-c2ccccc2)nc1` [Example 31, 1,4-dihydro-4-(methylcarbamyl)-imino-1-phenylpyridazine], in assay [1] (compounds of Table 1), the “factor by which the quotient of antidepressive action and hypertensive action is smaller than in the case of amezinium” value amounted to 77. Further, the “Q (quotient ED 50% antidepressive action/ED 20% hypertensive action)” value in assay [1] (hypertensive test i.v.) is reported as 0.19. In addition, the ED50 in assay [2] (setting [4]) turned out to be 0.28 mg/kg. For the same molecule, the “R.A. (relative activity), reserpine antagonism” value in assay [2] (Table 1) is reported as 2.62. The ED20 in assay [3] (setting [6]) was found to be 1.47 mg/kg. The “R.A. (relative activity), hypertensive action” value in assay [3] (Table 1, i.v. administration) was determined as 0.03.
For the molecule `O=C(N=c1ccn(-c2ccccc2)nc1)OCc1ccccc1` [Example 34], the “Q (quotient ED 50% antidepressive action/ED 20% hypertensive action)” value in assay [1] (hypertensive test i.v.) was 7.10. Besides, the ED50 in assay [2] (setting [4]) is 0.71 mg/kg. Besides, the “R.A. (relative activity), reserpine antagonism” value in assay [2] (Table 1) is recorded as 1.03. Also, the ED20 in assay [3] (setting [6]) was 0.1 mg/kg. Besides, the “R.A. (relative activity), hypertensive action” value in assay [3] (Table 1, i.v. administration) is 0.50.

(Values after patent US4820821A, “Novel pyridazinone-imines and their physiologically tolerated addition salts with acids, their preparation and therapeutic agents containing these compounds” (BASF Aktiengesellschaft, priority 1981, dated 1989).)
